These results are taken from patent US10683297B2 (Sunshine Lake Pharma Co., Ltd., priority 2017, dated 2020).

Data set [1] can be described thus: Compound stability in human liver microsomes. The format is in vitro ADME. The note with it: for half-life at 5 μM: human liver microsomes 0.5 mg protein/mL, compound 5 μM, NADPH 1.0 mM, pH 7.4, 37° C., read-out: Human T1/2; for CLint scaled at 5 μM: liver microsomes, pH 7.4, in vivo CLint extrapolated from human liver microsome incubation. The method, then:
(§1) The LC/MS/MS system used in the analysis consists of an Agilent 1200 Series vacuum degasser, binary pump, well-plate autosampler, thermostatted column compartment, the Agilent G6430 Triple Quadrupole Mass Spectrometer with an electrosprayionization (ESI) source. Quantitative analysis was carried out using MRM mode. The parameters for MRM transitions are in the Table A.
(§2) An Agilent XDB-C18, 2.1×30 mm, 3.5 μM column was used for the analysis. 5 μL of the samples were injected. Analysis condition: The mobile phase was 0.1% formic acid in water (A) and 0.1% formic acid in methanol (B). The flow rate was 0.4 mL/min. And the gradient of Mobile phase was in the Table B.
(§3) Alternatively, an Agilent 6330 series LC/MS/MS spectrometer equipped with G1312A binary pumps, a G1367A autosampler and a G1314C UV detector were used in the analysis. An ESI source was used on the LC/MS/MS spectrometer. The analysis was done in positive ion mode as appropriate and the MRM transition for each analyte was optimized using standard solution. A Capcell MP-C18 100×4.6 mm I.D., 5 uM column (Phenomenex, Torrance, Calif., USA) was used during the analysis. The mobile phase was 5 mM ammonia acetate, 0.1% MeOH in water (A): 5 mM ammonia acetate, 0.1% MeOH in acetonitrile (B) (70/30, v/v). The flow rate was 0.6 mL/min. Column was maintained at ambient temperature. 20 μL of the samples were injected.
(§4) Human or rat liver microsomes incubations were conducted in duplicate in polypropylene tubes. The typical incubation mixtures consisted of human or rat liver microsomes (0.5 mg protein/mL), compounds of interest (5 μM) and NADPH (1.0 mM) in a total volume of 200 μL potassium phosphate buffer (PBS, 100 mM, pH 7.4). Compounds were dissolved in DMSO and diluted with PBS such that the final concentration of DMSO was 0.05%. The enzymatic reactions were commenced with the addition of […] after a 3-min preincubation and incubated in a water bath open to the air at 37° C. Reactions were terminated at various time points (0, 5, 10, 15, 30, 60 min) by adding equal volume of ice-cold acetonitrile. The samples were stored at […] until LC/MS/MS assays.
(§5) The concentrations of compounds in the incubation mixtures of human or rat liver microsomes were determined by a LC/MS/MS method. The ranges of the linearity in the concentration range were determined for each tested compounds.
(§6) A parallel incubation was performed using denatured microsomes as the negative control, and reactions were terminated at various time points (0, 15, 60 min) after incubation at 37° C.
(§7) Dextromethorphan (70 μM) was selected as the positive control, and reactions were terminated at various time points (0, 5, 10, 15, 30, 60 min) after incubation at 37° C. Both positive and negative control samples were included in each assay to ensure the integrity of the microsomal incubation system.
(§8) The concentrations of compounds in human or rat liver microsome incubations were plotted as a percentage of the relevant zero time point control for each reaction. The in vivo CLint were extrapolated (ref.: Naritomi, Y.; Terashita, S.; Kimura, S.; Suzuki, A.; Kagayama, A.; and Sugiyama, Y.; Prediction of human hepatic clearance from in vivo animal experiments and in vitro metabolic studies with liver microsomes from animals and humans. Drug Metab. Dispos., 2001, 29: 1316-1324).

A short description of data set [2]: Compound stability in rat liver microsomes. It is filed as in vitro ADME. To be noted: for CLint scaled at 5 μM: liver microsomes, pH 7.4, in vivo CLint extrapolated from rat liver microsome incubation; for half-life at 5 μM: rat liver microsomes 0.5 mg protein/mL, compound 5 μM, NADPH 1.0 mM, pH 7.4, 37° C., read-out: Rat T1/2. The method, then:
as §1, §2, §3, §4, §5, §6, §7, §8

Data set [3] is described as follows: Pharmacokinetics after intravenous and oral administration in rats. It is filed as in vivo. To be noted: for Clearance (CL) after iv dosing / AUC(0-t) / half-life / Vd: dose 1 mg/kg (Ex. 9: 0.6, Ex. 18: 0.5, Ex. 50: 0.96 mg/kg), iv dosing; for AUC(0-t) / half-life / Vd / bioavailability: rat, plasma; for Vd: read-out: Vss; for bioavailability: oral (generally 5 or 10 mg/kg) versus iv dosing, read-out: F (oral bioavailability). The protocol:
as §1, §2, §3
The compounds disclosed herein are assessed in pharmacokinetic studies in mice, rats, dogs or monkeys. The compounds are administered as a water solution, 2% HPMC+1% TWEEN®80 in water solution, 5% DMSO+5% solutol in saline, 4% MC suspension or capsule. For the intravenous administration, the animals are generally given at about 0.5, 0.6, 1 or 2 mg/kg dose. For the oral (p.o.) dosing, mice and rats are generally given 5 or 10 mg/kg dose, and dogs and monkeys are generally given 10 mg/kg dose. The blood samples (0.3 mL) are drawn at 0.25, 0.5, 1.0, 2.0, 3.0, 4.0, 6.0, 8.0, 12 and 24 h time points or 0.083, 0.25, 0.5, 1.0, 2.0, 4.0, 6.0, 8.0 and 24 h time points and centrifuged at 3,000 or 4000 rpm for 2 to 10 min. The plasma solutions are collected, and stored at […] until analyzed by LC/MS/MS as described above.

For the molecule `N#Cc1ccc(N2CCC(Nc3nc(Nc4ccn5ccnc5c4)ncc3Cl)CC2)nn1` [Example 4, 6-(4-((5-chloro-2-(imidazo[1,2-a]pyridin-7-ylamino)pyrimidin-4-yl)amino)piperidin-1-yl)pyridazine-3-carbonitrile], in data set [1], the half-life at 5 μM amounted to 22.3 min and the intrinsic clearance (CLint scaled) (as a rule, the capacity of the preparation to metabolise the compound, expressed as a volume cleared per time) at 5 μM was 78.1 mL/min/kg. Besides, in data set [2], the CLint scaled at 5 μM was 75.4 mL/min/kg and the half-life at 5 μM turned out to be 32.9 min. In addition, in data set [3], the “Clearance (CL) after iv dosing” value was determined as 19 mL/min/kg; the AUC(0-t) – broadly, the area under the concentration-time curve up to a stated or last time point – was 909 ng·h/mL; the half-life was 43.8 min; the Vd stood at 1.05 L/kg. The bioavailability (commonly dose-corrected exposure relative to a reference, in per cent) in data set [3] stood at 35.1%.
`CCC1CN(c2ccc(C#N)cn2)CCC1Nc1nc(Nc2ccn3cnnc3c2)ncc1Cl` (stereo not shown) [Example 5, 6-(4-((2-([1,2,4]triazolo[4,3-a]pyridin-7-ylamino)-5-chloropyrimidin-4-yl)amino)-3-ethylpiperidin-1-yl)nicotinonitrile]: in data set [3], the “Clearance (CL) after iv dosing” value is 7.17 mL/min/kg, the AUC(0-t) stood at 2340 ng·h/mL, the half-life is 265 min and the Vd was determined as 0.56 L/kg. Further, the bioavailability in data set [3] amounted to 42.7%.
Turning to `CCC1CN(c2ccc(C#N)cn2)CCC1Nc1nc(Nc2ccn3ccnc3c2)ncc1Cl` (stereo not shown) [Example 6, 6-(4-((5-chloro-2-(imidazo[1,2-a]pyridin-7-ylamino)pyrimidin-4-yl)amino)-3-ethylpiperidin-1-yl)nicotinonitrile], in data set [3], the “Clearance (CL) after iv dosing” value worked out at 6.33 mL/min/kg, the AUC(0-t) came out at 2690 ng·h/mL, the half-life is 283 min and the Vd amounted to 0.76 L/kg. For the same molecule, the bioavailability in data set [3] is 71%.
Turning to `CCC1CN(c2ccc(C#N)nn2)CCC1Nc1nc(Nc2ccn3cnnc3c2)ncc1Cl` (stereo not shown) [Example 7, 6-(4-((2-([1,2,4]triazolo[4,3-a]pyridin-7-ylamino)-5-chloropyrimidin-4-yl)amino)-3-ethylpiperidin-1-yl)pyridazine-3-carbonitrile], the half-life at 5 μM came to 148 min in data set [1] and 22.2 min in data set [2]. For the same molecule, the intrinsic clearance (CLint scaled) at 5 μM in data set [1] is 11.7 mL/min/kg; in data set [2] it was 112 mL/min/kg.
In the case of `CN(c1nc(Nc2ccc3ncnn3c2)ncc1Cl)C1CCN(c2ccc(C#N)cn2)CC1` [Example 9, 6-(4-((2-([1,2,4]triazolo[1,5-a]pyridin-6-ylamino)-5-chloropyrimidin-4-yl) (methyl)amino)piperidin-1-yl)nicotinonitrile], in data set [1], the half-life at 5 μM stood at 71.9 min and the intrinsic clearance (CLint scaled) at 5 μM is 24.2 mL/min/kg. In addition, in data set [2], the intrinsic clearance (CLint scaled) at 5 μM is 303 mL/min/kg and the half-life at 5 μM was 8.21 min. Moreover, in data set [3], the “Clearance (CL) after iv dosing” value was 20.8 mL/min/kg, the exposure AUC(0-t) was determined as 547 ng·h/mL, the half-life is 48.6 min and the Vd was 1.13 L/kg. The bioavailability in data set [3] was found to be 69.1%.
As for `CCC1CN(c2ccc(C#N)nn2)CCC1N(C)c1nc(Nc2ccn3c(C)cnc3c2)ncc1Cl` (stereo not shown) [Example 11, 6-(4-((5-chloro-2-((3-methylimidazo[1,2-a]pyridin-7-yl)amino)pyrimidin-4-yl)(methyl)amino)-3-ethylpiperidin-1-yl)pyridazine-3-carbonitrile], in data set [1], the half-life at 5 μM was found to be 330 min and the CLint scaled at 5 μM is 5.26 mL/min/kg. Further, in data set [2], the intrinsic clearance (CLint scaled) at 5 μM was 0.34 mL/min/kg and the half-life at 5 μM is 5050 min.
For `CCC1CN(c2ccc(C#N)nn2)CCC1Nc1nc(Nc2ccn3c(C4CC4)cnc3c2)ncc1Cl` (stereo not shown) [Example 15, 6-(4-((5-chloro-2-((3-cyclopropylimidazo[1,2-a]pyridin-7-yl)amino)pyrimidin-4-yl)amino)-3-ethylpiperidin-1-yl)pyridazine-3-carbonitrile], in data set [1], the half-life at 5 μM is 22 min and the CLint scaled at 5 μM was 78.9 mL/min/kg. In data set [2], the intrinsic metabolic clearance (CLint scaled) at 5 μM is 834 mL/min/kg and the half-life at 5 μM came out at 2.98 min.
Turning to `N#Cc1ccc(N2CCC(Nc3nc(Nc4cnn5ccnc5c4)ncc3Cl)CC2)nc1` [Example 18, 6-(4-((5-chloro-2-(imidazo[1,2-b]pyridazin-7-ylamino)pyrimidin-4-yl)amino)piperidin-1-yl)nicotinonitrile], in data set [3], the “Clearance (CL) after iv dosing” value stood at 13.2 mL/min/kg, the exposure AUC(0-t) was 638 ng·h/mL, the half-life was 35.4 min and the Vd turned out to be 0.5 L/kg. In data set [3], the bioavailability turned out to be 79.4%.
As to `Cc1cn2c(C)cnc2cc1Nc1ncc(Cl)c(NC2CCN(c3ccc(C#N)nn3)CC2)n1` [Example 22, 6-(4-((5-chloro-2-((3,6-dimethylimidazo[1,2-a]pyridin-7-yl)amino)pyrimidin-4-yl)amino)piperidin-1-yl)pyridazine-3-carbonitrile], in data set [1], the half-life at 5 μM worked out at 388 min and the CLint scaled at 5 μM was 4.5 mL/min/kg. In addition, in data set [2], the CLint scaled at 5 μM was 11.7 mL/min/kg and the half-life at 5 μM stood at 213 min.
With `Cc1cnc2cc(Nc3ncc(Cl)c(NC4CCN(c5ccc(C#N)cn5)CC4)n3)ccn12` [Example 23, 6-(4-((5-chloro-2-((3-methylimidazo[1,2-a]pyridin-7-yl)amino)pyrimidin-4-yl)amino)piperidin-1-yl)nicotinonitrile], in data set [3], the “Clearance (CL) after iv dosing” value was 19.7 mL/min/kg, the AUC(0-t) worked out at 844 ng·h/mL, the half-life is 63 min and the Vd worked out at 1.68 L/kg. Moreover, in data set [3], the bioavailability worked out at 63%.
In the case of `Cc1cn2ncc(Nc3ncc(Cl)c(NC4CCN(c5ccc(C#N)cn5)CC4)n3)cc2n1` [Example 37, 6-(4-((5-chloro-2-((2-methylimidazo[1,2-b]pyridazin-7-yl)amino)pyrimidin-4-yl)amino)piperidin-1-yl)nicotinonitrile], in data set [3], the “Clearance (CL) after iv dosing” value came out at 11.5 mL/min/kg, the area under the curve AUC(0-t) was determined as 1460 ng·h/mL, the half-life was 55.8 min and the Vd is 0.83 L/kg. Further, the bioavailability in data set [3] worked out at 47.8%.
With `CCC1CN(c2ccc(C#N)cn2)CCC1Nc1nc(Nc2ccn3c(C(C)(C)O)nnc3c2)ncc1Cl` (stereo not shown) [Example 41], in data set [1], the half-life at 5 μM amounted to 198 min and the CLint scaled at 5 μM is 8.8 mL/min/kg. Also, in data set [2], the CLint scaled at 5 μM is 57.9 mL/min/kg and the half-life at 5 μM came to 42.9 min.
The corresponding values for `CC(O)Cn1cnc2ncc(Nc3ncc(Cl)c(NC4CCN(c5ccc(C#N)cn5)CC4)n3)cc21` (stereo not shown) [Example 51, 6-(4-((5-chloro-2-((1-(2-hydroxypropyl)-1H-imidazo[4,5-b]pyridin-6-yl)amino)pyrimidin-4-yl)amino)piperidin-1-yl)nicotinonitrile] are 31.6 min, 54.9 mL/min/kg, 73.1 mL/min/kg and 34 min.
